Measured values from PMC6199744, “Development of Chemical Proteomics for the Folateome and Analysis of the Kinetoplastid Folateome” (ACS Infectious Diseases, 2018).
Like-named read-outs stand apart in the source and are kept apart here.

Legend:
Type in all cases: binding
[1] = molecular target: T1, HeLa cell extract proteins (Homo sapiens, UniProt P22234)
T1 construct: endogenous in cells; host or cells: HeLa cell extract
T1 sequence (P22234 1-425): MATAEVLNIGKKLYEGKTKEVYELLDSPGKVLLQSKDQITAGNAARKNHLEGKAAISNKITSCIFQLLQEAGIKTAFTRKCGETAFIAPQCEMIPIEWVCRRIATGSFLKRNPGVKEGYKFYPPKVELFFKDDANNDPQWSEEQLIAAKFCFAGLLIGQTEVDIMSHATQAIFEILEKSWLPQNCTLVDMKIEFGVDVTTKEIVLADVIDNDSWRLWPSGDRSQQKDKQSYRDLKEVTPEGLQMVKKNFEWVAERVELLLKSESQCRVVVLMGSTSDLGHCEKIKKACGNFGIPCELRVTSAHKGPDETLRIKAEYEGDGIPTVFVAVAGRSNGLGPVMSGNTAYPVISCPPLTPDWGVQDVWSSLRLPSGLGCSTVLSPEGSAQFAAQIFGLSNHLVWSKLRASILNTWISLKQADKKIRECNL

[2] = molecular target: T2, HeLa cell extract proteins (Homo sapiens, UniProt Q15067)
T2 construct: endogenous in cells; host or cells: HeLa cell extract
T2 sequence (Q15067 1-660): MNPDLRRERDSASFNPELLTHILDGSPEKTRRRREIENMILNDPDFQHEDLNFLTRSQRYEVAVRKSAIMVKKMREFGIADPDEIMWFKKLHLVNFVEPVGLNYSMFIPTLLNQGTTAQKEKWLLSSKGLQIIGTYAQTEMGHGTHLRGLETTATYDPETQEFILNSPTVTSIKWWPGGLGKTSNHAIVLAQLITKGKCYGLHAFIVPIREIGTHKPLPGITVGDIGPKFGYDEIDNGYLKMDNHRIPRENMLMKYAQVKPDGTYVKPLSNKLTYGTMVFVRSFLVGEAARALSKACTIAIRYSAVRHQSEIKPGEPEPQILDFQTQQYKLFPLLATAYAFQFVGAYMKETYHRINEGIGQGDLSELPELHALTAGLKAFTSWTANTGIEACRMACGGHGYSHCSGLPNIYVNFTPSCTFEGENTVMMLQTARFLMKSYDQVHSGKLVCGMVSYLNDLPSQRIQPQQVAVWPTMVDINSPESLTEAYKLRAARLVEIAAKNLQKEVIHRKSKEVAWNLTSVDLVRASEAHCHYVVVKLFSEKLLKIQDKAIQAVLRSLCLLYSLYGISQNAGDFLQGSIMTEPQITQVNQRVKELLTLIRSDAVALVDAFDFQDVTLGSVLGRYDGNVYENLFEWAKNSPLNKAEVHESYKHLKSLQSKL

[3] = molecular target: T3, HeLa cell extract proteins (Homo sapiens, UniProt Q16637)
T3 construct: endogenous in cells; host or cells: HeLa cell extract
T3 sequence (Q16637 whole entry): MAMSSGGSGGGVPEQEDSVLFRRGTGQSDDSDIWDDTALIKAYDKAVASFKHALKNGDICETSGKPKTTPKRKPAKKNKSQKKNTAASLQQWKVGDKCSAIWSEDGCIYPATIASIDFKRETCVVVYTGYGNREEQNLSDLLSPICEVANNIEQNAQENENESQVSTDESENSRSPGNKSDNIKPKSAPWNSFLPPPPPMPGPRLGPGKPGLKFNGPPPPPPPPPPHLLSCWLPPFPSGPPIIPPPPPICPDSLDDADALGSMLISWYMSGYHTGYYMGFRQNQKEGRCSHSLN

[4] = molecular target: T4, HeLa cell extract proteins (Homo sapiens, UniProt P42704)
T4 construct: endogenous in cells; host or cells: HeLa cell extract

[5] = molecular target: T5, HeLa cell extract proteins (Homo sapiens, UniProt Q13263)
T5 construct: endogenous in cells; host or cells: HeLa cell extract
T5 sequence (Q13263 whole entry): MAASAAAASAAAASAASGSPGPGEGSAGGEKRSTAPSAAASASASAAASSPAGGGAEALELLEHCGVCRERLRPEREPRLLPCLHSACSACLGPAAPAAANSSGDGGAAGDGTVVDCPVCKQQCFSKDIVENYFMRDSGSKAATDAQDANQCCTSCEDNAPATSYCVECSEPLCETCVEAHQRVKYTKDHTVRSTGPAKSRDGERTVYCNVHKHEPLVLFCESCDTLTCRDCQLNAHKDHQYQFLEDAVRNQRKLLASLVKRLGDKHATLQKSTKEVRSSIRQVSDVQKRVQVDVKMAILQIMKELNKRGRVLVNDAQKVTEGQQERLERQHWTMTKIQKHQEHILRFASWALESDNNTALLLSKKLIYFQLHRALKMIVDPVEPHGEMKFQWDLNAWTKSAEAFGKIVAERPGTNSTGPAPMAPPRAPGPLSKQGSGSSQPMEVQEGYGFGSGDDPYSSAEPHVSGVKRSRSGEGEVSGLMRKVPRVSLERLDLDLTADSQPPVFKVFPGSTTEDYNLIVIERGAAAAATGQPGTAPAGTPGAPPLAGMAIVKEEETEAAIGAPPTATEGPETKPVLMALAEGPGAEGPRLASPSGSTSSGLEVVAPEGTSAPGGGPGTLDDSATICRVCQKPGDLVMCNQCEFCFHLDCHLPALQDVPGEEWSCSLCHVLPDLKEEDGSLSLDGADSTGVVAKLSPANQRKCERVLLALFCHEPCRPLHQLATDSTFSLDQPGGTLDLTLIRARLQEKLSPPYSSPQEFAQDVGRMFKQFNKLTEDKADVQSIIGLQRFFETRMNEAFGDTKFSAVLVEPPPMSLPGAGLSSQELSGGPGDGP

[6] = molecular target: T6, HeLa cell extract proteins (Homo sapiens, UniProt P40763)
T6 construct: endogenous in cells; host or cells: HeLa cell extract
T6 sequence (P40763 whole entry): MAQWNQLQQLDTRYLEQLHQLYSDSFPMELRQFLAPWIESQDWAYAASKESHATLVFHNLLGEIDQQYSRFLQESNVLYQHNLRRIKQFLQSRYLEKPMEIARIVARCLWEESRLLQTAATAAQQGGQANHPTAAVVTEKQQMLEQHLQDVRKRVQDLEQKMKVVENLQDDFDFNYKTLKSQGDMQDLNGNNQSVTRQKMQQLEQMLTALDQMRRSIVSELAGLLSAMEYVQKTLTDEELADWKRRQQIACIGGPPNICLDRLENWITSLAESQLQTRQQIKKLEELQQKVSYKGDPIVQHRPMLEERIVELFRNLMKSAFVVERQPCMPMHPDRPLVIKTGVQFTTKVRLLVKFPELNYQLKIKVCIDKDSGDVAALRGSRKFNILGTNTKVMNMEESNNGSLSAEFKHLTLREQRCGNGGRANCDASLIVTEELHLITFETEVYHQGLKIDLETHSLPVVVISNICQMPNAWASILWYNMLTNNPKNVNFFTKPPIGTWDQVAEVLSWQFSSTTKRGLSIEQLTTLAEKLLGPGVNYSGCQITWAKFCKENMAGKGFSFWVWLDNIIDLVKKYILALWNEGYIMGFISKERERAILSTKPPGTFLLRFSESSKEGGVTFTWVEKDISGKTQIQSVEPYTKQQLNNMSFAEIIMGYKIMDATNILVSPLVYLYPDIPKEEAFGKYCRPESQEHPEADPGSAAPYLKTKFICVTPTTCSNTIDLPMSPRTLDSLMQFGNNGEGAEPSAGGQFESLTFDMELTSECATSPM

[7] = molecular target: T7, HeLa cell extract proteins (Homo sapiens, UniProt P50991)
T7 construct: endogenous in cells; host or cells: HeLa cell extract
T7 sequence (P50991 1-539): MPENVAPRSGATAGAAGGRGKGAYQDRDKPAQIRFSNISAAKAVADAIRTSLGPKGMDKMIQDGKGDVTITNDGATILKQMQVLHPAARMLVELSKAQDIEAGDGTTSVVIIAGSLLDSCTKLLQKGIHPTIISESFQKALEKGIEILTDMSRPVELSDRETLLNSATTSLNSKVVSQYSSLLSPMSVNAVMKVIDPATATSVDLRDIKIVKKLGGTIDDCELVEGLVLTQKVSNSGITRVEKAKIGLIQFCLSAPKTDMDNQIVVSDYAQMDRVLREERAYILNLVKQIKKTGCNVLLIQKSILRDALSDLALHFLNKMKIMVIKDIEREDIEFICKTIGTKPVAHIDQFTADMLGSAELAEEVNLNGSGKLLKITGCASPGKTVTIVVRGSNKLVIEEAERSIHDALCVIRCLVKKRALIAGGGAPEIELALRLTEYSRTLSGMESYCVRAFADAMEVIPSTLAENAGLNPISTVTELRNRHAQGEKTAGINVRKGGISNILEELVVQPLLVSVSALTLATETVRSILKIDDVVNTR

[8] = molecular target: T8, HeLa cell extract proteins (Homo sapiens, UniProt P16083)
T8 construct: endogenous in cells; host or cells: HeLa cell extract
T8 sequence (P16083 1-231): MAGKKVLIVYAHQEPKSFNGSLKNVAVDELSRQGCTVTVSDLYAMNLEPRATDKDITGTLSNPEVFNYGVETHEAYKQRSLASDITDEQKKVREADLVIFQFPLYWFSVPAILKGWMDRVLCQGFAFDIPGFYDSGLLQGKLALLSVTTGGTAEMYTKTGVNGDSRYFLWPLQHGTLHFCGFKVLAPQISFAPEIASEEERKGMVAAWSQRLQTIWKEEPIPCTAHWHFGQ

[9] = molecular target: T9, HeLa cell extract proteins (Homo sapiens, UniProt O14818)
T9 construct: endogenous in cells; host or cells: HeLa cell extract
T9 sequence (O14818 1-248): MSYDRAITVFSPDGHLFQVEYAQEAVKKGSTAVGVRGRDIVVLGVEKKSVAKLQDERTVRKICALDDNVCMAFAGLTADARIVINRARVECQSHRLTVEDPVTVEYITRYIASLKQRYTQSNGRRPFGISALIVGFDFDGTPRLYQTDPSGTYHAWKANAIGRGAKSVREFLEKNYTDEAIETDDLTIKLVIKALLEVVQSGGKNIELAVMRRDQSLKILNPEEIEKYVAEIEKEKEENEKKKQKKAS

[10] = molecular target: T10, HeLa cell extract proteins (Homo sapiens, UniProt P00441)
T10 construct: endogenous in cells; host or cells: HeLa cell extract
T10 sequence (P00441 whole entry): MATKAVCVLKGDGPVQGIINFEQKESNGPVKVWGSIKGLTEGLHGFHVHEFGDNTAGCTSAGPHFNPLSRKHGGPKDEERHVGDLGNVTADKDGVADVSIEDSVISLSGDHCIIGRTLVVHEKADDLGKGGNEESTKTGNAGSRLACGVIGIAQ

Structure (SMILES) | fold changes relative to vehicle control ([1]; HeLa, protein PAICS) | fold changes relative to vehicle control ([2]; HeLa, protein ACOX1) | fold changes relative to vehicle control ([3]; HeLa, protein SMN1) | fold changes relative to vehicle control ([4]; HeLa, protein LRPPRC) | fold changes relative to vehicle control ([5]; protein TRIM28, HeLa) | fold changes relative to vehicle control ([6]; protein STAT3, HeLa) | fold changes relative to vehicle control ([7]; protein CCT4, HeLa) | fold changes relative to vehicle control ([8]; protein NQO2, HeLa) | fold changes relative to vehicle control ([9]; HeLa, captured protein PSMA7) | fold changes relative to vehicle control ([10]; HeLa, protein SOD1) | fold changes relative to vehicle control ([1]; protein PAICS, HeLa) | fold changes relative to vehicle control ([3]; protein SMN1, HeLa) | fold changes relative to vehicle control ([4]; protein LRPPRC, HeLa) | fold changes relative to vehicle control ([8]; HeLa, protein NQO2) | fold changes relative to vehicle control ([9]; protein PSMA7, HeLa) | fold changes relative to vehicle control ([10]; protein SOD1, HeLa) | other results
Nc1nc2c(c(=O)[nH]1)N(C=O)C(CNc1ccc(C(=O)N[C@@H](CCC(=O)O)C(=O)O)cc1)CN2 (stereo partly shown) [LEU, leucovorin] | 0.97 | 1 | 0.94 | 0.92 | 0.88 | 0.81 | 1 | 1.1 | 1.08 | 1.01 |  |  |  |  |  |  | 
Nc1nc2[nH]cc(CCc3ccc(C(=O)N[C@@H](CCC(=O)O)C(=O)O)cc3)c2c(=O)[nH]1 [PTX, pemetrexed] |  |  |  |  |  |  |  |  |  |  |  |  |  |  |  |  | fold changes relative to vehicle control [1]: 0.86; fold changes relative to vehicle control [2]: 0.95; fold changes relative to vehicle control [3]: 0.99; fold changes relative to vehicle control [4]: 1.15; fold changes relative to vehicle control [5]: 0.97; fold changes relative to vehicle control [6]: 0.73; fold changes relative to vehicle control [7]: 1.01; fold changes relative to vehicle control [8]: 0.16; fold changes relative to vehicle control [9]: 1.03; fold changes relative to vehicle control [10]: 1.22
CCCCCCOc1ccc(Cc2cnc(N)nc2N)cc1 [compound 1] |  | 0.98 |  |  | 1.12 | 0.87 | 1.25 |  |  |  | 1.07 | 1 | 0.92 | 0.91 | 1.13 | 1.47 | 
CCCCCCOc1cccc(Cc2cnc(N)nc2N)c1 [compound 2] |  | 0.92 |  |  | 1.44 | 1.1 | 1.73 |  |  |  | 1.68 | 1.09 | 1.33 | 0.7 | 1.3 | 2.11 | 
Nc1nc2cccc(-c3ccccc3)c2n1Cc1ccc(Cl)c(Cl)c1 [compound 3] |  | 1.33 |  |  | 1.02 | 1.15 | 1 |  |  |  | 0.94 | 0.98 | 0.74 | 0.99 | 1.07 | 0.8 | 
NCCOCCOCC(=O)Nc1nc2ncc(CNc3ccc(C(=O)NC(CCC(=O)O)C(=O)O)cc3)nc2c(=O)[nH]1 (stereo not shown) [compound 6] | 1.22 | 0.99 | 1.16 | 1.22 | 1.02 | 0.91 | 1.14 | 0.72 | 1.02 | 1.44 |  |  |  |  |  |  | 
NCCCNc1ccc(C(=O)NC(CCC(=O)O)C(=O)O)cc1 (stereo not shown) [compound 7] | 0.98 | 0.94 | 0.97 | 1.21 | 0.9 | 1 | 0.94 | 1.04 | 0.93 | 1.08 |  |  |  |  |  |  | 
